# pIC50: −log10 of the molar value.
# Experiments:
# Assay type in all cases: biochemical
# Settings in all cases: HeLa S3 lysate, sfGFP/mCherry ratio, 2 hrs at 30° C.
# MYC = experiment: In vitro transcription-translation (IVTT) reporter assay, MYC test sequence
# Method in brief: (§1)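 Coupled transcription-translation in HeLa S3 lysate with reporter plasmids encoding mCherry-P2A-3×FLAG-TEST-sfGFP behind an EMCV IRES. Compounds were half-log titrated (30 μM-0.1 μM in DMSO dilution plate) into master mix, then DNA was added. Reactions ran 2 hrs at 30° C, were PBS-quenched and read for fluorescence.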
# KRAS G12D = experiment: In vitro transcription-translation (IVTT) reporter assay, KRAS G12D test sequence
# Method in brief: as §1
# ALK = experiment: In vitro transcription-translation (IVTT) reporter assay, ALK test sequence
# Method in brief: as §1
# CCND1 = experiment: In vitro transcription-translation (IVTT) reporter assay, CCND1 test sequence
# Excerpt: All reporter constructs have been cloned into the pT7CFE1-CHis plasmid (ThermoFisher #88860) using Gibson assembly procedures (NEB #E2611L). The parental pT7CFE1-CHis plasmid contains an EMCV IRES at the 5′UTR for translation initiation, a multiple-cloning site (MCS) for gene insertion, an optional C-terminal His-epitope tag, and polyA sequence in the 3′UTR to regulate mRNA stability. All reporters are designed to be inserted at the MCS to include a red fluorescent protein (mCherry), P2A self-cleaving peptide which releases the preceding mCherry protein product, and a fusion open reading frame containing a 3×FLAG epitope, a peptide sequence of interest (TEST), and green fluorescent protein (sfGFP).
# Construct Plasmid Preparation: All plasmids are isolated from MACH1 cells (ThermoFisher) grown overnight in ampicillin-containing luria broth, and purified using ZymoPure Express Plasmid Midiprep Kit (Zymo Research). Constructs are sequenced verified and diluted to a working concentration of 110 ng/μL.
# HeLa S3 Lysate Preparation: HeLa S3 cell pellets are acquired from Ipracell/Ipratech (Belgium) and shipped as 4 mL frozen cell pellets on dry ice for storage at −80° C. until use. The procedure for lysate preparation is as follows. Prepare 1× Lysis Buffer, cold and stored on ice:
# Each preparation takes 8 cell pellets (4 ml packed volume each, approximately 1.0×10^9 cells per pellet). Thaw cell pellets from −80° C. on ice for 90 mins. Lay pellets horizontally on top of the ice and rotate every 30 mins to ensure even thawing. Once thawed, add 4 mL of cold lysis buffer to each pellet, and using a serological pipet, gently pipet up and down to break up clumps. Incubate resuspended cells in ice for an additional 30 mins (plunged into ice). During 30 min incubation, rinse and RNase-zap (Ambion) glass dounces (use loose pestle “A”), gently dry and place on ice until needed. Prepare RNase-free Eppendorf tubes for spinning and for batch storage. Add batch labels to 1.5-1.7 mL RNase-free microcentrifuge tubes (labeling scheme below). Each batch will have an extra 1.5-1.7 mL RNase-free microcentrifuge tube for 40 μL of lysate, label the top of this tube (labeling scheme below). After 30 min incubation, transfer all 8 mL of cell pellet to dounce. Cell lysis is complete after douncing 100 times. Aliquot cell lysis into 1.5-1.7 mL temporary-microcentrifuge tubes. Place tubes in centrifuge with “fins” out, and spin at 1,200 xg for 5 mins. After the first spin use a 1 mL pipet to resuspend each tube and repeat spin. This acts as an additional lysis step, is more vigorous and increases lysate yield. During second spin get liquid N2 and a fresh conical tube on ice.
# After spin is complete, transfer supernatant (lysate) from microcentrifuge tubes into the 50 mL conical tube and keep on ice. Repeat steps 10-14 for all other cell pellets until completed. Once all cell lysate has been transferred to the 50 mL conical tube pipet to mix so the solution is homogenous. Transfer 1 mL of lysate into batch-labeled microcentrifuge tubes and flash freeze in liquid nitrogen. Be sure to pipet up and down to mix throughout transfer step. Place all tubes in the […] for long-term storage.
# In vitro transcription-translation assay setup: Each assay includes a master mix containing lysate and shared components, a 96-well plate containing compound titrations for testing, a 96-well DNA plate with reporter constructs to be tested, 96-well skirted PCR plates, and 96-well flat-bottom, black, fluorescent assay plates. […]
pIC50 (MYC),pIC50 (KRAS G12D),pIC50 (ALK),pIC50 (CCND1),Structure (SMILES)
> 5.00,> 5.00,> 5.00,,COc1ccc(C[C@H]2NC[C@H](O)[C@H]2OC(=O)C[C@H]2CCNC2)cc1 [V187689]
> 5.00,4.70 to 5.00,> 5.00,,"COc1ccc(C[C@H]2NC[C@H](O)[C@H]2OC(=O)CCCN2CCNCC2)cc1 [V187694, (2R,3S,4S)-4-hydroxy-2-[(4-methoxyphenyl)methyl]pyrrolidin-3-yl 4-(piperazin-1-yl)butanoate]"
> 5.00,> 5.00,> 5.00,,COc1ccc(C[C@H]2NC[C@H](O)[C@H]2OC(=O)COCc2nnc(C)s2)cc1 [V187720]
> 5.00,> 5.00,> 5.00,,CC(=O)O[C@@H]1[C@@H](O)CN[C@@H]1Cc1ccc(-c2cn(-c3ccccc3)nn2)cc1 [V187731]
> 5.00,,,> 5.00,"CC(=O)O[C@@H]1[C@@H](O)CN[C@@H]1Cc1ccc(-c2cn(-c3ccnc(N)n3)nn2)cc1 [V188057, (2R,3S,4S)-2-({4-[1-(2-aminopyrimidin-4-yl)-1,2,3-triazol-4-yl]phenyl}methyl)-4-hydroxypyrrolidin-3-yl acetate]"

# The next lines start with the compound.
Structure (SMILES),pIC50 (MYC),pIC50 (KRAS G12D),pIC50 (ALK),pIC50 (CCND1)
COc1ccc(C[C@H]2NC[C@H](O)[C@H]2OC(=O)CCCCCO)cc1 [V186777],> 5.00,> 5.00,> 5.00,> 5.00
"COc1ccc(C[C@H]2NC[C@H](O)[C@H]2OC(=O)CC2NC(=O)CNC2=O)cc1 (stereo partly drawn) [V186862, (2R,3S,4S)-4-hydroxy-2-[(4-methoxyphenyl)methyl]pyrrolidin-3-yl 2-(3,6-dioxopiperazin-2-yl)acetate]",> 5.00,< 4.52,> 5.00,< 4.52
"COc1ccc(C[C@H]2NC[C@H](O)[C@H]2OC(=O)C2CCC2)cc1 [V186921, (2R,3S,4S)-4-hydroxy-2-[(4-methoxyphenyl)methyl]pyrrolidin-3-ylcyclobutanecarboxylate; trifluoroacetic acid]",> 5.00,> 5.00,,> 5.00
"COc1ccc(C[C@H]2NC[C@H](O)[C@H]2OC(=O)CN2CC(F)(F)C2)cc1 [V187045, (2R,3S,4S)-4-hydroxy-2-[(4-methoxyphenyl)methyl]pyrrolidin-3-yl 2-(3,3-difluoroazetidin-1-yl)acetate; trifluoroacetic acid]",,,> 5.00,> 5.00
COc1ccc(C[C@H]2NC[C@H](O)[C@H]2OC(=O)Cc2ccncc2)cc1 [V187056],> 5.00,,> 5.00,> 5.00
"COc1ccc(C[C@H]2NC[C@H](O)[C@H]2OC(=O)Cc2ccccn2)cc1 [V187082, (2R,3S,4S)-4-hydroxy-2-[(4-methoxyphenyl)methyl]pyrrolidin-3-yl 2-(pyridin-2-yl)acetate]",> 5.00,> 5.00,> 5.00,> 5.00
COCCC(=O)OC1[C@@H](O)CN[C@@H]1Cc1ccc(OC)cc1 (stereo partly shown) [V187168],> 5.00,,> 5.00,> 5.00
"COc1ccc(C[C@H]2NC[C@H](O)[C@H]2OC(=O)CNC2CC2)cc1 [V187170, (2R,3S,4S)-4-hydroxy-2-[(4-methoxyphenyl)methyl]pyrrolidin-3-yl 2-(cyclopropylamino)acetate]",> 5.00,,> 5.00,> 5.00
"COc1ccc(C[C@H]2NC[C@H](O)[C@H]2OC(=O)CCc2cocn2)cc1 [V187176, (2R,3S,4S)-4-hydroxy-2-[(4-methoxyphenyl)methyl]pyrrolidin-3-yl 3-(1,3-oxazol-4-yl)propanoate; trifluoroacetic acid]",> 5.00,> 5.00,,> 5.00
"COc1ccc(C[C@H]2NC[C@H](O)[C@H]2OC(=O)Cc2nnn[nH]2)cc1 [V187533, (2R,3S,4S)-4-hydroxy-2-[(4-methoxyphenyl)methyl]pyrrolidin-3-yl 2-(1H−1,2,3,4-tetrazol-5-yl)acetate; trifluoroacetic acid]",4.70 to 5.00,< 4.52,> 5.00,
